Experimental data taken from ChEMBL document CHEMBL3868628, “Dimeric sesquiterpene and thiophenes from the roots of Echinops latifolius” (Bioorg Med Chem Lett, 2016).

tested on: not listed separately; assay: Antiinflammatory activity in mouse RAW264.7 cells assessed as reduction in LPS-induced NO production after 24 hrs in presence of LPS by colorimetric analysis; format: functional, cell-based; conditions: RAW264.7, 24 h

SMILES | IC50 [µM]
COc1ccc2c(c1)c(CC(=O)O)c(C)n2C(=O)c1ccc(Cl)cc1 [INDOMETHACIN] | 13.2
N=C(N)NN [PIMAGEDINE] | 24.2
CC#Cc1ccc(-c2ccc(C(=O)OC)s2)s1 | > 100

Next, values leading:

IC50 [µM] | SMILES
12.8 | C/C=C\C#CC#Cc1ccc(C(O)CO)s1 (stereo not given)
> 100 | CC#Cc1ccc(-c2ccc(C=O)s2)s1
30.9 | CC#Cc1ccc(-c2ccc(C(CO)OC)s2)s1 (stereo not given)
28.2 | C/C=C/C#CC#Cc1ccc(C(O)CO)s1 (stereo not given)
> 100 | C=C1CCC[C@]2(C)C[C@]3(O)OC(=O)C(C)=C3C[C@@H]12 [ATRACTYLENOLIDE III]
48.7 | CC#Cc1ccc(-c2ccc(C(O)CO)s2)s1 (stereo not given)

species: Mus musculus; assay: Cytotoxicity against mouse RAW264.7 cells assessed as reduction in cell viability at 1 to 10 uM after 24 hrs by cell counting based colorimetric analysis; format: toxicity; conditions: raw264.7, 24 h

SMILES | Activity
C=C(C)[C@@H]1CC[C@]2(C)C(=C(C)OC3=C2C[C@H]2C4C[C@H](C(C)C)CC[C@@]4(C)CC(=O)[C@@]2(O)O3)C1 (stereo not given in full) | Toxic
